Assay results reported in ChEMBL document CHEMBL1201862, “PubChem BioAssay data set” (2004).
Calls of active or inactive are those of the source.

Columns and labels:
Insulin-degrading enzyme [1] = target: T1, Insulin-degrading enzyme (Homo sapiens, UniProt P14735); assay: recombinant IDE activation, cell-free – biochemical, fluorescence polarization, counter-screen for IDE activator project, dose response (AID 588681)
T1 sequence (P14735 whole entry): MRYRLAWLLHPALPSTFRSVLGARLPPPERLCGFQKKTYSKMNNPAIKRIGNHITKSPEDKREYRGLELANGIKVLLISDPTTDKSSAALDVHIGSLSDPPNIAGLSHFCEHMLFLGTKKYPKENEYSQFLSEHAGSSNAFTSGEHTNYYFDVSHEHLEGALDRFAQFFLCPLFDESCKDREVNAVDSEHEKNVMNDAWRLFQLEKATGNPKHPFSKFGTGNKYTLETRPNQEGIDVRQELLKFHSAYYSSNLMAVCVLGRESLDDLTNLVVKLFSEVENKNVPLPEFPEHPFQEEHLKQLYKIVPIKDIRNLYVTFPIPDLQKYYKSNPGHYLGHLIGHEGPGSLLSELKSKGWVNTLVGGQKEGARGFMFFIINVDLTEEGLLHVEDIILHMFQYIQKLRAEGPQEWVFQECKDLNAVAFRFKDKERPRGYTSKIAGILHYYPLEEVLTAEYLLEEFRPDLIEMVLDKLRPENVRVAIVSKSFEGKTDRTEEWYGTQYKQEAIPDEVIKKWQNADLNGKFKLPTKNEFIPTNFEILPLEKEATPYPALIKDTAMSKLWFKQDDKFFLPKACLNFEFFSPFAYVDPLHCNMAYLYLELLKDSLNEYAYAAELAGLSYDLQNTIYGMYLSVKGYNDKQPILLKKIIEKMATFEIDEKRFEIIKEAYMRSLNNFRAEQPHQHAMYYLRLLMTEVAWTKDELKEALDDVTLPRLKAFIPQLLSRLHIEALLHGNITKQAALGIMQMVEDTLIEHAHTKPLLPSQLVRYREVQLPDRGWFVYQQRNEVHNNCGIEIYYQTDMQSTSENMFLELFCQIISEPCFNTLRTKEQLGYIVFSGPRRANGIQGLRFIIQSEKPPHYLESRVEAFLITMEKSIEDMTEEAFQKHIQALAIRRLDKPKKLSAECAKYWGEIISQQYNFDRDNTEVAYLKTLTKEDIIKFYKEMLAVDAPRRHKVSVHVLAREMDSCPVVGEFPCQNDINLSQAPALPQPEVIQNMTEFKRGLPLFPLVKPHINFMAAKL

Insulin-degrading enzyme [2] = target: T1, Insulin-degrading enzyme; assay: cellular IDE activation of Abeta substrate cleavage – fluorescence polarization, HEK cells, dose response (AID 588439); assay type: functional, cell-based
HEK293 [3] = assay: membrane integrity loss in HEK cells – cell-based, fluorescence, cytotoxicity control for IDE activator project, dose response (AID 588440); assay type: functional; conditions: Homo sapiens;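 note: cytotoxicity by LDH release measuring loss of membrane integrity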
HEK293 [4] = assay: optical interference in Abeta FP readout, dose response, artefact control for IDE activator project, biochemical, fluorescence polarization (AID 588442); assay type: functional, cell-based; conditions: Homo sapiens
[5] = microbe, parasite or virus in culture; assay type: functional; conditions: Mycobacterium tuberculosis
[6] = Luminescence Cell-Based Dose Retest to Confirm Inhibitors of Cancer Stem Cells. [Related pubchem assays (depositor defined):AID2717, AID2721]; assay type: functional; conditions: Homo sapiens
[7] = target: T2, Ubiquitin-conjugating enzyme E2 N (Homo sapiens, UniProt P61088); assay type: functional;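 note: Dose-response confirmation in a TR-FRET assay detecting UBC13-driven polyubiquitin chain formation, inhibition measured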
T2 sequence (P61088 whole entry): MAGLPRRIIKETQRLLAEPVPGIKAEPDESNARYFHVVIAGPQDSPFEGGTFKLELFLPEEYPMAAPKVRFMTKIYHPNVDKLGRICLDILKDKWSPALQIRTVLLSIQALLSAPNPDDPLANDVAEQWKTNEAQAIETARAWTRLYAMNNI

[8] = cytotoxicity toward MDA-MB-231 breast cancer cells – cell-based, CellTiter-Glo luminescence, cherry-pick, cytotoxicity control for RAD54 inhibitor project, dose response (AID 651692); assay type: functional
[9] = target: Glycogen synthase kinase-3 alpha (Homo sapiens, UniProt P49840); assay: Inhibition of Human GSK-3 alpha Activity Measured in Biochemical System Using Microfluidics - 2063-06_Inhibitor_Dose_DryPowder_Activity_Set2. [Related pubchem assays (depositor defined):AID2709]
Chain of Glycogen synthase kinase-3 alpha (P49840 whole entry): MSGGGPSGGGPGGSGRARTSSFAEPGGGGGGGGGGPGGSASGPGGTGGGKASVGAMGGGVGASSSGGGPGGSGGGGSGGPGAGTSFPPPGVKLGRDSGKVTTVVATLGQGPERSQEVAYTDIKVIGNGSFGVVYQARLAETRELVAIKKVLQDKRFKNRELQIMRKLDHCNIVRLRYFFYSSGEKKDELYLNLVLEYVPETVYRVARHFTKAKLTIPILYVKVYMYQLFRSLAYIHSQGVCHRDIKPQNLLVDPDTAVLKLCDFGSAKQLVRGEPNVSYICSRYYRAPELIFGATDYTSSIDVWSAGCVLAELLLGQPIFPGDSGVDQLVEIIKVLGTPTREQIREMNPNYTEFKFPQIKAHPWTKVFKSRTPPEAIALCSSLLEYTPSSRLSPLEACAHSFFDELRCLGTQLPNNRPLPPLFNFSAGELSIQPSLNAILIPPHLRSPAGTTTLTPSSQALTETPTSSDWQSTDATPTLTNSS

[10] = target: Glycogen synthase kinase-3 beta (Homo sapiens, UniProt P49841); assay: Inhibition of Human GSK-3 beta Activity Measured in Biochemical System Using Microfluidics - 2063-05_Inhibitor_Dose_DryPowder_Activity_Set2. [Related pubchem assays (depositor defined):AID2709]
Chain of Glycogen synthase kinase-3 beta (P49841 whole entry): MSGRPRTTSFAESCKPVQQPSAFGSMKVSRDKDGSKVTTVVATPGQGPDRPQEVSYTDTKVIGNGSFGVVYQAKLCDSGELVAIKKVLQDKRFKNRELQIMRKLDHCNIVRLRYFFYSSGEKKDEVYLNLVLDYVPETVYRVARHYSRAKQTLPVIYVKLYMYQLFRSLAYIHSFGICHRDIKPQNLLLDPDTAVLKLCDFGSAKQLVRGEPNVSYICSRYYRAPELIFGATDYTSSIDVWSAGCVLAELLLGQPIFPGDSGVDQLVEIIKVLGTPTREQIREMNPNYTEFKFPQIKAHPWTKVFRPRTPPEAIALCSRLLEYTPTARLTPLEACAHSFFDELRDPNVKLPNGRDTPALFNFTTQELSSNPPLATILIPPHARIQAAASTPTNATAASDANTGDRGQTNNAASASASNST

[11] = inhibitors of non-replicating M. tuberculosis, dose response, luciferase, dry powder (AID 651619); assay type: functional; conditions: Mycobacterium tuberculosis
[12] = inhibitors of non-replicating M. tuberculosis, dose response, luciferase, dry powder (AID 651620); assay type: functional; conditions: Mycobacterium tuberculosis
[13] = system: Streptococcus sp. 'group A'; assay: Streptococcus pyogenes SK(-)GAS viability under kanamycin – luminescence, BacTiterGlo, confirmation, counter-screen for streptokinase expression inhibitor project, dose response (AID 1900); assay type: functional, organism-based
Streptokinase A = target: T3, Streptokinase A (Streptococcus pyogenes serotype M1, UniProt P10520); assay: viability-normalized secreted streptokinase activity reduction – plasminogen activation absorbance, OD405, dose response (AID 1914); assay type: functional, Streptococcus pyogenes M1 GAS;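 note: secreted streptokinase activity via plasminogen activation per viability signal from cell pellet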
T3 sequence (P10520 whole entry): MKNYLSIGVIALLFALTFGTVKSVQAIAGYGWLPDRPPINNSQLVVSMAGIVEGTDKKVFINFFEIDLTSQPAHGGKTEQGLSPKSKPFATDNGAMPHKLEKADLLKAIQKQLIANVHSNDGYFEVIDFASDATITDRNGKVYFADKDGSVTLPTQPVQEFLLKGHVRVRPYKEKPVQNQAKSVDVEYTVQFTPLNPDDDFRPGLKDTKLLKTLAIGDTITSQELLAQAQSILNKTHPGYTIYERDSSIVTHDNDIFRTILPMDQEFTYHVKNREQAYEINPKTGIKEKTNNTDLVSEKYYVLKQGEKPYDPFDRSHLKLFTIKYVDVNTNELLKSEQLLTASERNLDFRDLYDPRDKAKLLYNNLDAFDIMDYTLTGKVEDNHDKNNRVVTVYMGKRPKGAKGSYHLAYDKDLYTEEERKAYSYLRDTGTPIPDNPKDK

Streptococcus = assay: GAS UMAA2166 growth inhibition – luminescence, BacTiterGlo, counter-screen for streptokinase expression inhibitor project, dose response (AID 1915); assay type: functional, organism-based;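 note: potency for reduction of bacterial viability or growth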
CHO-K1 = assay: Counterscreen for antagonists of the orexin 1 receptor (OX1R; HCRTR1): Homogeneous time resolved fluorescence (HTRF)-based cell-based dose response assay to identify antagonists of the parental CHO-K1 cell line. [Related pubchem assays (depositor defined):AID434989, AID435008, AID463079, AID485270, AID492963, AID492964, AID492965, AID493232, AID504699, AID504701]; assay type: functional; conditions: Cricetulus griseus;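 note: potency for inhibition of ATP-stimulated IP1 production as antagonists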
CAAX prenyl protease 2 = target: T4, CAAX prenyl protease 2 (Saccharomyces cerevisiae S288c, UniProt Q03530); assay type: biochemical
T4 sequence (Q03530 whole entry): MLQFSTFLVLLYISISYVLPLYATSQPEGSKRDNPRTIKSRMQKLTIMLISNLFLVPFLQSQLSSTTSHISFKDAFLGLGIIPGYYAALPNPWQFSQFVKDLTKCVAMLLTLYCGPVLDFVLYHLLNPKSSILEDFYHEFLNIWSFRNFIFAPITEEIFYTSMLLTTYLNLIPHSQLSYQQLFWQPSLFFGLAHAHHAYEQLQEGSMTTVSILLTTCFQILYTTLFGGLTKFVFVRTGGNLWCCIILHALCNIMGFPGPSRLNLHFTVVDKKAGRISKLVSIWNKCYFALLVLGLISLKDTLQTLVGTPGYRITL

[14] = Counterscreen for antagonists of the orexin 1 receptor (OX1R; HCRTR1): Fluorescence-based cell-based high throughput dose response assay to identify antagonists of the parental CHO cell line. [Related pubchem assays (depositor defined):AID434989, AID435008, AID463079, AID485270, AID492963, AID492964, AID492965, AID493232, AID504699, AID504701]; assay type: functional
[15] = target: T5, Orexin/Hypocretin receptor type 1 (Homo sapiens, UniProt O43613); assay: Homogeneous Time Resolved Fluorescence (HTRF)-based cell-based high throughput dose response assay for antagonists of the orexin 1 receptor (OX1R; HCRTR1). [Related pubchem assays (depositor defined):AID434989, AID435008, AID463079, AID485270, AID492963, AID492964, AID492965, AID493232, AID504717, AID504718]; assay type: functional
T5 sequence (O43613 whole entry): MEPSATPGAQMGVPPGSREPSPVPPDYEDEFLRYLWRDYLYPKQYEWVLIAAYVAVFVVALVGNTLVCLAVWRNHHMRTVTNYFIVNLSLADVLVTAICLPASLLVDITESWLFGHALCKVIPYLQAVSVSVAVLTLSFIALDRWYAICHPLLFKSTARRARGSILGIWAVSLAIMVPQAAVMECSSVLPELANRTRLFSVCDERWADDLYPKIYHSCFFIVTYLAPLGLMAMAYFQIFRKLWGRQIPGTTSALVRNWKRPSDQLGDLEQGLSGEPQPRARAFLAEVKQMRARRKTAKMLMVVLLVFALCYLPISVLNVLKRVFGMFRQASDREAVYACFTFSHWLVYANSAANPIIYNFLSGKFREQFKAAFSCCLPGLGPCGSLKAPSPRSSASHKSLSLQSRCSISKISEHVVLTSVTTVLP

[16] = target: T5, Orexin/Hypocretin receptor type 1; assay: Fluorescence-based cell-based high throughput dose response assay for antagonists of the orexin 1 receptor (OX1R; HCRTR1). [Related pubchem assays (depositor defined):AID434989, AID435008, AID463079, AID485270, AID492963, AID492964, AID492965, AID493232, AID504717, AID504718]; assay type: functional
Orexin receptor type 2 [17] = target: T6, Orexin receptor type 2 (Homo sapiens, UniProt O43614); assay: Counterscreen assay for antagonists of the orexin 1 receptor (OX1R; HCRTR1): Fluorescence-based cell-based dose response assay for antagonists of the orexin 2 receptor (OX2R; HCRTR2), run by assay provider.; assay type: functional
T6 sequence (O43614 whole entry): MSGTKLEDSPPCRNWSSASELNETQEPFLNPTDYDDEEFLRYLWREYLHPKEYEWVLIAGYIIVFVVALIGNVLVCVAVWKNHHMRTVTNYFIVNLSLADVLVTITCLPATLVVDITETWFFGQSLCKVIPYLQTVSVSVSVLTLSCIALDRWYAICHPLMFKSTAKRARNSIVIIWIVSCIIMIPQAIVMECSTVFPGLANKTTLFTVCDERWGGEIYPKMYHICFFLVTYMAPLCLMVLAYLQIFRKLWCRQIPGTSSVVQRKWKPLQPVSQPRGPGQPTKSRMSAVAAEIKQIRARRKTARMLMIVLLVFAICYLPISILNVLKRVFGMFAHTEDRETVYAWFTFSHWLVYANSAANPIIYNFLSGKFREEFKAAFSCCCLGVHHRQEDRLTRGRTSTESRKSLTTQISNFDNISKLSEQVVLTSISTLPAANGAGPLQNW

Orexin receptor type 2 [18] = target: T6, Orexin receptor type 2; assay: Counterscreen assay for antagonists of the orexin 1 receptor (OX1R; HCRTR1): Homogeneous Time Resolved Fluorescence (HTRF)-based cell-based dose response assay for antagonists of the orexin 2 receptor (OX2R; HCRTR2), run by assay provider.; assay type: functional
[19] = A549 cell cytotoxicity, dose response, cytotoxicity control, plate reader, cherry-pick, antagonist series (AID 743412); assay type: functional, cell-based
[20] = toxicity toward HepG2 liver cells – cell-based, plate reader, cherry-pick, antagonist series, cytotoxicity control, dose response (AID 743416); assay type: functional
[21] = blockade of melanocortin 4 receptor signaling – cell-based, plate reader, cherry pick, counter-screen for LGR2 antagonist project, dose response (AID 743444); assay type: functional;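 note: transfected HEK 293 cells stimulated with alpha-MSH peptide; potency of inhibitors of the alpha-MSH evoked signal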
[22] = viability loss in HEK293 cells – cell-based, plate reader, cherry-picked samples, cytotoxicity control, dose response (AID 743446); assay type: functional

| Compound | EC50 (Insulin-degrading enzyme [1]) | EC50 (Insulin-degrading enzyme [2]) | IC50 (HEK293 [3]) | EC50 (HEK293 [4]) | AC50 [9] | AC50 [10] | IC50 (CHO-K1) | IC50 [14] | IC50 [15] | IC50 [16] | IC50 (Orexin receptor type 2 [17]) | IC50 (Orexin receptor type 2 [18]) | other results |
| --- | --- | --- | --- | --- | --- | --- | --- | --- | --- | --- | --- | --- | --- |
| O=C(NCC1CC1)c1onc(CSc2ccc(F)c(F)c2)c1C(=O)NCC1CC1 | > 54.7 µM (inactive) | > 54.7 µM (inactive) | > 89.3 µM (inactive) | > 54.7 µM (inactive) | – | – | – | – | – | – | – | – | – |
| Cc1ccc(C)c(N2CCN(C(=S)Nc3ccc4nc(N5CCN(C)CC5)cc(C)c4c3)CC2)c1 | > 54.7 µM (inactive) | > 54.7 µM (inactive) | 18 µM (inactive) | > 55.9 µM (inactive) | – | – | – | – | – | – | – | – | CC50 [5]: 17.1 µM (active); AC50 [6]: 13.3 µM (active); IC50 [7]: > 20 µM (inactive); AC50 [8]: 34.8 µM (active) |
| Nc1nc(NCCCN2CCOCC2)nc(Nc2cccc(Cl)c2)c1[N+](=O)[O-] | – | – | – | – | 0.429 µM (active) | 0.253 µM (active) | – | – | – | – | – | – | – |
| Fc1ccc(CSc2nnc(-c3ccncc3)o2)cc1 | – | – | – | – | 3.37 µM (active) | 0.578 µM (active) | – | – | – | – | – | – | IC90 [11]: 4 µM (active); IC90 [12]: 4 µM (active) |
| O=[N+]([O-])c1ccc(-c2c[nH]c(SC(c3ccccc3)c3ccccc3)n2)cc1 | – | – | – | – | – | – | > 66.2 µM (inactive) | 32.6 µM (inactive) | 5.72 µM (active) | 7.34 µM (active) | 29.7 µM (inactive) | > 50 µM (inactive) | EC50 [13]: 6.07 µM (active); EC50 (Streptokinase A): 15.2 µM (active); EC50 (Streptococcus): > 150 µM (not active); AC50 (CAAX prenyl protease 2): 2.05 µM (active); AC50 [19]: 19 µM (active); AC50 [20]: 19.1 µM (active); AC50 [21]: 7.88 µM (active); AC50 [22]: 22.2 µM (active) |
| O=[N+]([O-])c1cccc(-c2nc(-c3cccs3)c(-c3cccs3)[nH]2)c1 | – | – | – | – | – | – | > 66.2 µM (inactive) | > 49.8 µM (inactive) | 6.65 µM (active) | > 5.53 µM (active) | 28.8 µM (inactive) | 3.2 µM (active) | – |
